Laboratory results taken from PubChem BioAssay (NCI).
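How tested: cells in 96-well plates exposed to compound for 48 hours at five concentrations. TGI is the concentration that stops growth completely.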

Legend:
Assay in all cases: DTP human tumour cell line panel, 48 h
[1] = tested on: 786-0 renal
[2] = tested on: A498 renal
[3] = tested on: A549 NSCLC
[4] = tested on: ACHN renal
[5] = tested on: BT-549 breast
[6] = tested on: CAKI-1 renal
[7] = tested on: CCRF-CEM leukemia
[8] = tested on: COLO 205 colon
[9] = tested on: DU-145 prostate
[10] = tested on: EKVX NSCLC
[11] = tested on: HCC-2998 colon
[12] = tested on: HCT-116 colon
[13] = tested on: HOP-62 NSCLC
[14] = tested on: HS 578T breast
[15] = tested on: K-562 leukemia
[16] = tested on: KM12 colon
[17] = tested on: LOX IMVI melanoma
[18] = tested on: M14 melanoma
[19] = tested on: MALME-3M melanoma
[20] = tested on: MCF7 breast
[21] = tested on: MDA-MB-231 breast
[22] = tested on: MDA-MB-435
[23] = tested on: MDA-N
[24] = tested on: MOLT-4 leukemia
[25] = tested on: NCI-H23 lung
[26] = tested on: NCI-H460 lung
[27] = tested on: NCI-H522 lung
[28] = tested on: OVCAR-3 ovarian
[29] = tested on: OVCAR-4 ovarian
[30] = tested on: OVCAR-5 ovarian
[31] = tested on: OVCAR-8 ovarian
[32] = tested on: PC-3 prostate
[33] = tested on: RPMI-8226 leukemia
[34] = tested on: RXF 393 renal
[35] = tested on: SF-268 CNS
[36] = tested on: SF-295 CNS
[37] = tested on: SF-539 CNS
[38] = tested on: SK-MEL-2 melanoma
[39] = tested on: SK-MEL-28 melanoma
[40] = tested on: SK-MEL-5 melanoma
[41] = tested on: SK-OV-3 ovarian
[42] = tested on: SN12C renal
[43] = tested on: SNB-19 CNS
[44] = tested on: SNB-75 CNS
[45] = tested on: SR leukemia
[46] = tested on: SW-620 colon
[47] = tested on: T-47D breast
[48] = tested on: TK-10 renal
[49] = tested on: U251 CNS
[50] = tested on: UACC-257 melanoma
[51] = tested on: UACC-62 melanoma
[52] = tested on: UO-31 renal
[53] = tested on: HOP-92 NSCLC
[54] = tested on: HT29 colon
[55] = tested on: IGROV1 ovarian
[56] = tested on: NCI-H226 lung
[57] = tested on: NCI/ADR-RES ovarian

SMILES: O=C(Cn1c2ccc(Br)cc2c2nc3ccccc3nc21)NNC(=O)NC1CCCCC1
- TGI [1]: > 100 µM
- TGI [2]: > 100 µM
- TGI [3]: 41.7 µM
- TGI [4]: > 100 µM
- TGI [5]: > 100 µM
- TGI [6]: > 100 µM
- TGI [7]: 76.1 µM
- TGI [8]: > 100 µM
- TGI [9]: 86 µM
- TGI [10]: > 100 µM
- TGI [11]: > 100 µM
- TGI [12]: > 100 µM
- TGI [13]: 78.8 µM
- TGI [14]: > 100 µM
- TGI [15]: > 100 µM
- TGI [16]: > 100 µM
- TGI [17]: > 100 µM
- TGI [18]: > 100 µM
- TGI [19]: > 100 µM
- TGI [20]: > 100 µM
- TGI [21]: > 100 µM
- TGI [22]: > 100 µM
- TGI [23]: > 100 µM
- TGI [24]: 67.1 µM
- TGI [25]: > 100 µM
- TGI [26]: > 100 µM
- TGI [27]: > 100 µM
- TGI [28]: > 100 µM
- TGI [29]: 42.9 µM
- TGI [30]: > 100 µM
- TGI [31]: > 100 µM
- TGI [32]: > 100 µM
- TGI [33]: > 100 µM
- TGI [34]: > 100 µM
- TGI [35]: > 100 µM
- TGI [36]: > 100 µM
- TGI [37]: > 100 µM
- TGI [38]: > 100 µM
- TGI [39]: > 100 µM
- TGI [40]: > 100 µM
- TGI [41]: > 100 µM
- TGI [42]: > 100 µM
- TGI [43]: > 100 µM
- TGI [44]: 73.5 µM
- TGI [45]: > 100 µM
- TGI [46]: > 100 µM
- TGI [47]: > 100 µM
- TGI [48]: > 100 µM
- TGI [49]: > 100 µM
- TGI [50]: > 100 µM
- TGI [51]: > 100 µM
- TGI [52]: 8.09 µM

SMILES: O=S1(=O)C[C@H](NCc2ccccc2)[C@H](NCc2ccccc2)C1
- TGI [3]: > 100 µM
- TGI [4]: > 100 µM
- TGI [5]: > 100 µM
- TGI [6]: > 100 µM
- TGI [7]: > 100 µM
- TGI [8]: > 100 µM
- TGI [9]: > 100 µM
- TGI [10]: > 100 µM
- TGI [11]: > 100 µM
- TGI [12]: > 100 µM
- TGI [13]: > 100 µM
- TGI [53]: > 100 µM
- TGI [14]: > 100 µM
- TGI [54]: > 100 µM
- TGI [55]: > 100 µM
- TGI [15]: > 100 µM
- TGI [16]: > 100 µM
- TGI [17]: > 100 µM
- TGI [18]: > 100 µM
- TGI [19]: > 100 µM
- TGI [20]: > 100 µM
- TGI [21]: > 100 µM
- TGI [22]: > 100 µM
- TGI [23]: > 100 µM
- TGI [24]: > 100 µM
- TGI [56]: > 100 µM
- TGI [25]: > 100 µM
- TGI [26]: > 100 µM
- TGI [27]: 68.2 µM
- TGI [57]: > 100 µM
- TGI [28]: > 100 µM
- TGI [29]: > 100 µM
- TGI [30]: > 100 µM
- TGI [31]: > 100 µM
- TGI [32]: > 100 µM
- TGI [33]: 86.7 µM
- TGI [34]: > 100 µM
- TGI [35]: > 100 µM
- TGI [36]: > 100 µM
- TGI [37]: > 100 µM
- TGI [38]: > 100 µM
- TGI [39]: > 100 µM
- TGI [40]: > 100 µM
- TGI [41]: > 100 µM
- TGI [42]: > 100 µM
- TGI [43]: > 100 µM
- TGI [44]: > 100 µM
- TGI [45]: > 100 µM
- TGI [46]: > 100 µM
- TGI [47]: 86.4 µM
- TGI [48]: > 100 µM
- TGI [49]: > 100 µM
- TGI [50]: > 100 µM
- TGI [51]: > 100 µM
- TGI [52]: > 100 µM
